Experimental data as given in US20240115540A1, “METHODS FOR PROVIDING HEALTH BENEFITS IN ANIMALS” (Société des Produits Nestlé S.A., priority 2022, published 2024).

Test system: db/db mice
Test: CKD mice study: db/db mice fed test diets for 8 weeks (glomerular hyperfiltration, glycogen storage, kidney histology)
Format: in vivo
Experimental: The present study used db/db mice at 8 weeks of age for 8 weeks of intervention. The mice were divided into 4 groups of 9-10 mice administered with different blends (the Control group was administered with standard AIN-93M diet, the Dapa Group was administered standard AIN-93M augmented with dapagliflozin at 10 mg/kg, the RPB group was administered a standard diet augmented with a renal protection blend, the RPB+ group was administered a standard diet augmented with a renal protection blend that included medium chain triglycerides); the diets are shown in Table 1. The blends were administered to study glomerular hyperfiltration and glycogen storage in tissues. Final weekly food intake, final body weight, final blood glucose level, final lean body mass, and final fat mass of the groups is presented in Table 2. Also presented in table 2 were GFR progression, urine albumin/creatine ratio, urine protein/creatinine ratio, glomerulosclerosis score, Periodic acid-Schiff (PAS) staining scores for distal convoluted tubule (DCT) lumen, PAS staining scores for intranuclear inclusions distal tubules, and PAS staining scores for cytoplamis aggregates distal tubules.
In addition to the measurements of Table 2, the mice were measured for hyalinosis on a scoring system of no hyalinosis, intermediate hyalinosis, or severe hyalinosis, where hyalinosis refers to the thickening of the walls of the glomerular arterioles by the deposits of homogenous hyaline material. […] The control group had 1 mouse with no hyalinosis, 4 mice with intermediate hyalinosis, and 4 with significant hyalinosis; the dapa group had 2 mice with no hyalinosis, 5 mice with intermediate hyalinosis, and 2 mice with significant hyalinosis, the RPB group had 5 mice with no hyalinosis, 4 mice with intermediate hyalinosis, and 1 mouse with significant hyalinosis, and the RPB+ group had 2 mice with no hyalinosis and 8 mice with intermediate hyalinosis.

[1] = glomerular arterioles, groups of 9-10
[2] = kidney tissue, 8 weeks of intervention

SMILES: CCOc1ccc(Cc2cc([C@@H]3O[C@H](CO)[C@@H](O)[C@H](O)[C@H]3O)ccc2Cl)cc1 [Dapa, dapagliflozin]
- GFR progression (8 weeks of intervention): 0.01 mL/min
- Blood glucose (final) (after 8 weeks of intervention): 464.78 mg/dL
- Fat mass (final) (after 8 weeks of intervention): 23.99 g
- Lean mass (final lean body mass) (after 8 weeks of intervention): 15.31 g
- number of mice with intermediate hyalinosis [1]: 5 mice
- number of mice with no hyalinosis [1]: 2 mice
- number of mice with significant (severe) hyalinosis [1]: 2 mice
- Glomerulosclerosis score [2]: 1.83
- PAS DCT lumen (PAS staining score, distal convoluted tubule lumen) [2]: 1.44
- PAS cytoplasmic aggregates DT (PAS staining score, distal tubules) [2]: 1.78
- PAS intranuclear inclusions DT (PAS staining score, distal tubules) [2]: 2.11
- Albumin/Creatinine ratio (urine, 8 weeks of intervention): 181.54
- Protein/Creatinine ratio (urine, 8 weeks of intervention): 36.92
